Data set [1] deals with Huh7 cells. The data set can be described thus: MTT cytotoxicity assay in Huh7 cells. It counts as cell-based, human. To be noted: 48 h, up to 12 µM Tpl, three independent experiments. As to the method:
(§1) MTT assay was used to identify the non-cytotoxic concentrations of Tpl. Cell viability was measured using MTT (3-(4,5_dimethylthaizol-2-yl)-2,5-diphenyltetrazolium bromide) assay. Approximately 10,000 cells were seeded per well in 96-well plates and kept overnight at 37 °C and 5% CO2 to achieve more than 80% confluency. Thereafter, cells were treated with various concentrations of Tpl for 48 h. After 48 h, media was removed, and cells were washed with PBS. MTT reagent was added at a final concentration of 1 mg/mL and kept for 4 h at 37 °C and 5% CO2. Thereafter, 100 µL of DMSO was added to dissolve the formazan crystals formed, and absorbance was determined at a wavelength of 570 nm with a background wavelength of 630 nm (Multiskan GO microplate spectrophotometer, Thermo Scientific, Waltham, MA, USA).

In data set [2] the test system is HepG2 cells. As to the kind of experiment: MTT cytotoxicity assay in HepG2 cells. It counts as cell-based, human. As to conditions: 48 h, up to 12 µM Tpl, three independent experiments. As to the method: as §1
In general terms: Formazan colour is commonly taken as a measure of viable cells.

Residues, ends and D or L forms follow the SMILES beside them.

For the molecule `CC[C@H](C)[C@@H]1NC(=O)CNC(=O)[C@H](CCCNC(=N)N)NC(=O)[C@H](Cc2ccc(O)cc2)NC(=O)[C@@H]2CSSC[C@H](NC1=O)C(=O)N[C@@H](Cc1ccc(O)cc1)C(=O)N[C@@H](CCCNC(=N)N)C(=O)N[C@@H](CCCNC(=N)N)C(=O)N[C@H](C(=O)N[C@@H](CCCNC(=N)N)C(=O)NCC(=O)N[C@@H](CCCCN)C(N)=O)CSSC[C@H](NC(=O)[C@H](Cc1c[nH]c3ccccc13)NC(=O)[C@@H](N)CCCCN)C(=O)N[C@@H](Cc1ccccc1)C(=O)N[C@@H](CCCNC(=N)N)C(=O)N[C@@H](C(C)C)C(=O)N2` [Tpl] (HELM PEPTIDE1{K.W.C.F.R.V.C.Y.R.G.I.C.Y.R.R.C.R.G.K.[am]}$PEPTIDE1,PEPTIDE1,3:R3-16:R3|PEPTIDE1,PEPTIDE1,7:R3-12:R3$$$V2.0), the Cell viability result in data set [1] and in data set [2] was “more than 85%” throughout.

The values above are taken from paper PMC9962029, “Inhibition of Hepatitis B Virus (HBV) by Tachyplesin, a Marine Antimicrobial Cell-Penetrating Peptide” (Pharmaceutics, 2023).
